Where two headings read alike, the source gives them in different places.
Assays:
Type in all cases: in vivo
[1] = tested on: Meloidogynes spec; assay: Nematocidal activity against Meloidogynes spec (tomato root galls); conditions: 25 Kg/ha
Procedure: a. Activity against Meloidogynes spec
A volume of about 3 liters of dirt infested with Meloidogynes spec was placed in a plastic sack. Nematocidal treatments are considered effective to a depth of 30 cm, a volume of 3 liters of dirt corresponding to a surface area of 100 cm^ 2 or 10^-^6 ha (since 100 cm^ 2 × 30 cm = 3000 ml or 3 liters). Each volume of infested dirt received 100 ml of an aqueous suspension containing 0.250 g of the test product (corresponding to 250 Kg/ha) and the controls received only 100 ml of water. The plastic sacks containing the dirt were immediately sealed after the treatment and then agitated to obtain a good distribution of the product. Two weeks after the treatment, the sacks were opened and the dirt was used to plant 3 tomato plants of St. Pierre variety. The plants used were raised in the greenhouse with dirt sterilized with heat to obtain plants free of nematodes. Three plants were used for each test which was run 6 times for each treatment. Two months after planting the tomatoes were removed from the dirt and the efficacy was determined by counting the number of galls observed on the roots. A correlation between the population of Meloidogynes in the pot and the number of galls exists.

[2] = tested on: Blattella germanica; assay: Topical application activity against Blattella germanica; conditions: 5000 ppm, read-out: percent of mortality
Procedure: b. Activity against Blattella germanica
This test was a topical application in which adult male Blattella germanica received 2 microliters of an acetone solution of the test products between the second and third pair of paws. After this treatment, the test insects were held in a dim light at 20° C and were fed. The results expressed as percent of mortality in Table II were read 24 and 48 hours and 5 days after the treatment.

[3] = tested on: Drosophila melanogaster; assay: Vapor activity against Drosophila melanogaster; conditions: inhaled or nasal, read-out: percentage of mortality
Procedure: a. Activity against Drosophila melanogaster
This test measures the vapor activity of the compounds and the less than 48 hours old insects were placed in a Petri dish with a 10 cm diameter connected by a tergal screen to a crystallizer of the same diameter in which the test compound in acetone solution is placed. The said solution is evaporated after the insects have been placed and 3 tests with 25 insects were run for each concentration. The results are expressed in Table I as a percentage of mortality after 1, 2, 4 and 6 hours.

[4] = tested on: Sitophilus granarius; assay: Topical application test against Sitophilus granarius; conditions: read-out: percent mortality
Procedure: c. Test against Sitophilus granarius
This topical application test comprised preparing the test compounds in acetone solution at concentrations of 5000, 500 and 50 mg of the active compound per liter and 0.2 μl of the solutions were applied to the ventral thorax of 50 Sitophilus granarius for each concentration.

[5] = tested on: Musca domestica; assay: Topical application activity against Musca domestica; conditions: read-out: percent of mortality
Procedure: d. Activity against Musca domestica
This topical application test consisted of placing a microliter of an acetone solution of the test product on the dorsal thorax of Musca domestica after having been put to sleep with ether. The insects were held at 20° C and 50% relative humidity and were fed milk and water.

[6] = tested on: Musca domestica larvae; assay: Contact-ingestion test against Musca domestica larvae; conditions: read-out: percent of mortality
Procedure: g. Activity against Musca domestica larvae
This contact-ingestion test consisted of placing 2 ml of an acetone solution of different concentrations of the test product on 1 g of bran placed in a watch glass and the solvent was evaporated. The treated bran was placed in a plastic dish and was admixed with 2 ml of milk. 20 3 to 4 day old larvae of Musca domestica were added to the bran and were held at 20° C and 30% relative humidity and 3 tests were conducted for each concentration.

[7] = tested on: Spodoptera littoralis; assay: Ingestion test against Spodoptera littoralis caterpillars; conditions: po, ingestion, read-out: percent of mortality
Procedure: e. Activity against Spodoptera littoralis
This test was effected with Spodoptera littoralis caterpillars 1 to 1.5 cm long and an average of 10 days old. In this ingestion test, 4 ml of an acetone solution of the test products was placed on lettuce rings with an 8 mm diameter which were placed in closed plastic dishes with a 5 cm diameter. 15 caterpillars were placed in each dish and were held at 20° C and 50% relative humidity and were fed when the insects had eaten the treated lettuce ring.

[8] = tested on: Panagrellus silusiae; assay: Nematocidal activity against Panagrellus silusiae
Procedure: b. Activity against Panagrellus silusiae
30 nematodes were placed on a watch glass and three tests were run for each concentration. The 3 watch glasses for each treatment were placed in a Petri dish with a 15 cm diameter containing a film of water in a manner to retard evaporation of the solution to wet the nematodes. The concentration of the product was 125 mg of MA/L and 1 ml of toxic solution was placed on each watch glass containing the nematodes in 0.5 ml of water.

[9] = tested on: Ditylenchus Myceliophagus; assay: Acaricide activity, Ditylenchus Myceliophagus; conditions: 24 h, read-out: Percent of mortality after 24 hours
Procedure: In an apparatus containing 10 ml of an aqueous solution of the test product, 0.5 ml of water containing about 2000 acariens of Ditylenchus Myceliophagus were added thereto and the percent of mortality was determined by a binocular magnifying glass after 24 hours.

With `CCOc1nc(OP(=O)(OC)OC)c(C#N)s1` [Compound D, 2-ethoxy-4-dimethoxyphosphoryloxy-5-cyano-thiazole] the “Relative efficacity in % as compound to controls” value [1] was 52.8%, the “Number of galls per foot” value ([1]; control 44.4) was 31.25 and the “Total number of galls” value ([1]; control 222) was 125. It also gave a mortality at 5000 ppm ([2]; 24 H) of 100%, a mortality at 5000 ppm ([2]; 48 H) of 100% and a mortality at 5000 ppm ([2]; 120 h, 5 Days) of 100%. It also gave a mortality at 500 ppm ([3]; 2 H) of 100%, a mortality at 500 ppm ([3]; 6 H) of 100% and a mortality at 5000 ppm ([4]; 4 H) of 100%. It also gave a mortality at 5000 ppm ([4]; 24 H) of 100%, a mortality at 5000 ppm ([4]; 120 h, 5 Days) of 100% and a mortality at 5000 ppm ([5]; 24 H) of 64%. For the same molecule, the mortality at 5000 ppm ([6]; 192 h, 8 Days) was 90%.

In the case of `CCCCOc1nc(OP(=S)(OC)OC)c(C#N)s1` [Compound B, 2-n-butoxy-4-dimethoxythiophosphoryloxy-5-cyano-thiazole], the mortality at 125 ppm ([7]; 1 H) is reported as 0%, the mortality at 250 ppm ([7]; 1 H) is reported as 0% and the mortality at 500 ppm ([7]; 1 H) is reported as 0%. It also gave a mortality at 125 ppm ([7]; 24 H) of 50%, a mortality at 250 ppm ([7]; 24 H) of 100% and a mortality at 500 ppm ([7]; 24 H) of 100%. The mortality at 125 ppm ([7]; 48 H) was 90%, the mortality at 250 ppm ([7]; 48 H) was 100% and the mortality at 500 ppm ([7]; 48 H) was 100%. The mortality at 1 µg/mL ([8]; 0.001 g/l, 24 hours) was 89.3%, the mortality at 10 µg/mL ([8]; 0.01 g/l, 24 hours) was 100% and the mortality at 100 µg/mL ([8]; 24 h, read-out: % of mortality) was 100%. The mortality at 5 ppm ([3]; 1 H) was 0%, the mortality at 50 ppm ([3]; 1 H) was 77% and the mortality at 500 ppm ([3]; 1 H) was 100%. It also gave a mortality at 5 ppm ([3]; 4 H) of 100%, a mortality at 50 ppm ([3]; 4 H) of 100% and a mortality at 500 ppm ([3]; 4 H) of 100%. For the same molecule, the mortality at 5 ppm ([3]; 6 H) was 100%, the mortality at 50 ppm ([3]; 6 H) was 100% and the mortality at 500 ppm ([3]; 6 H) was 100%. For the same molecule, the mortality at 50 ppm ([4]; 4 H) was 0%, the mortality at 500 ppm ([4]; 4 H) was 96% and the mortality at 5000 ppm ([4]; 4 H) was 100%. For the same molecule, the mortality at 50 ppm ([4]; 24 H) was 0%, the mortality at 500 ppm ([4]; 24 H) was 100% and the mortality at 5000 ppm ([4]; 24 H) was 100%. It also gave a mortality at 50 ppm ([4]; 120 h, 5 Days) of 0%, a mortality at 500 ppm ([4]; 120 h, 5 Days) of 100% and a mortality at 5000 ppm ([4]; 120 h, 5 Days) of 100%. For the same molecule, the mortality at 500 ppm ([5]; 1 H) was 96%, the mortality at 2500 ppm ([5]; 1 H) was 100% and the mortality at 5000 ppm ([5]; 1 H) was 100%. It also gave a mortality at 500 ppm ([5]; 24 H) of 100%, a mortality at 2500 ppm ([5]; 24 H) of 100% and a mortality at 5000 ppm ([5]; 24 H) of 100%. The mortality at 500 ppm ([6]; 48 H) was 88%, the mortality at 5000 ppm ([6]; 48 H) was 93% and the mortality at 500 ppm ([6]; 192 h, 8 Days) was 98%. The mortality at 5000 ppm ([6]; 192 h, 8 Days) was 98%, the mortality at 1 µg/mL ([9]; 0.001 g/l) was 43.3% and the mortality at 10 µg/mL ([9]; 0.010 g/l) was 95.9%. The mortality at 100 µg/mL ([9]; 0.1 g/l) was 98.5%.

— patent publication US4020076A, “Novel phosphoryloxy-thiazoles” (priority 1974, dated 1977)
